Here are results for seven compounds from patent publication US20250353891A1 (MEDIMMUNE LIMITED, priority 2022, published 2025).

Each structure is given as a SMILES string. Where two headings read alike, the source gives them in different places. Starred links: 1 amine or outer side, 2 acyl side, 3 side chain; linkers in the order of their positions; H or OH if unused. Non-standard residues stand in square brackets, D forms with d. Residues, ends and D or L forms follow the SMILES beside them. Groups on a side chain read outwards from the residue. *: point of attachment. C20 diacid = O=C(O)CCCCCCCCCCCCCCCCCCC(=O)*; C18 diacid = O=C(O)CCCCCCCCCCCCCCCCC(=O)*; γGlu = O=C(O)[C@H](CCC(=O)[*:2])N[*:1]; αMeF = C[C@](N)(Cc1ccccc1)C(=O)O; AEEA = NCCOCCOCC(=O)O; Ac3c = NC1(C(=O)O)CC1; Aib = CC(C)(N)C(=O)O

The target of assay [1] is human glucagon receptor (hGCGR) (Homo sapiens, UniProt P47871). Description: cAMP production (HTRF) in CHO cells expressing hGCGR. The format is cell-based. Also noted: expressed in transfected cells. Particulars: cAMP in CHO hGCGR cells, geometric mean, read-out: hGluc-R EC50. Put shortly: (§1)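 Potency values represent EC50 from 4-parameter logistic curves of HTRF % Delta F signal. Receptor-expressing CHO cells (hGCGR 2×10^5 cells/mL, hGLP-1R 1×10^5 cells/mL) were exposed for 30 min at room temperature before two-step cAMP detection.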
Sequence of human glucagon receptor (hGCGR) (P47871 26-477): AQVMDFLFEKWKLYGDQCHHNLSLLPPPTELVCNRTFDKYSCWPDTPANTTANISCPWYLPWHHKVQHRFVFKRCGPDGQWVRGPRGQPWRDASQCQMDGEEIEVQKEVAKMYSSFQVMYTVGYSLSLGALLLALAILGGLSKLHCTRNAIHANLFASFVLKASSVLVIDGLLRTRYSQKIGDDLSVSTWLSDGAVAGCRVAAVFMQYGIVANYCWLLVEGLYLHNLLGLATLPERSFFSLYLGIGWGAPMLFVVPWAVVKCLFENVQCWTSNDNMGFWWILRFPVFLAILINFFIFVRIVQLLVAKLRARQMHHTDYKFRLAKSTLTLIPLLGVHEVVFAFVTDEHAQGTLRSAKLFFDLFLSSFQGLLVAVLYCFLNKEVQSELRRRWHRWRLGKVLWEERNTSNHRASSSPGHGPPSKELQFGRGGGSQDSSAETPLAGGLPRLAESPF

For assay [2], the target named is human GLP-1 receptor (hGLP-1R) (Homo sapiens, UniProt P43220). Description: cAMP production (HTRF) in CHO cells expressing hGLP-1R. The format is cell-based. Details: expressed in transfected cells. The settings on record: for EC50: cAMP in CHO hGLP-1R cells, geometric mean, read-out: hGLP-1R EC50; for % Relative Potency Ratio: % GLP-1R activity relative to GLP-1 / % GlucR activity relative to glucagon. Put shortly: as §1
Sequence of human GLP-1 receptor (hGLP-1R) (P43220 24-463): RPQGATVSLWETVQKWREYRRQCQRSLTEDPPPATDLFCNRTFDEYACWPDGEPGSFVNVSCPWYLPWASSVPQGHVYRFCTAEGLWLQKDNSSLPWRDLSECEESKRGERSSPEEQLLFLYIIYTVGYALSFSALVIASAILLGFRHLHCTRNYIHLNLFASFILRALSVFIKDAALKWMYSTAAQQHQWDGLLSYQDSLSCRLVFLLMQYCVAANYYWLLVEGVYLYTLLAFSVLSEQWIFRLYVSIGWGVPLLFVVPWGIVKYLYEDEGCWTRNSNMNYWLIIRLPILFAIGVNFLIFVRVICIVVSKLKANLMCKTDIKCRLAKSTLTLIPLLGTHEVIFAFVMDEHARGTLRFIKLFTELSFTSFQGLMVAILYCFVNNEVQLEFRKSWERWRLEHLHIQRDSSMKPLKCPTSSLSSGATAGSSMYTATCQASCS

Setting [3] is: Table 7, peptides modified at position 20.
[4] abbreviates: Table 6, peptides modified at position 17.

One may read the EC50 as the concentration that produces a half-maximal response.

As for `CC[C@H](C)[C@H](NC(=O)C(C)(C)NC(=O)[C@H](CCC(N)=O)NC(=O)[C@@H](NC(=O)[C@](C)(Cc1ccccc1)NC(=O)[C@H](CC(=O)O)NC(=O)[C@H](CCCCNC(=O)COCCOCCNC(=O)COCCOCCNC(=O)CC[C@H](NC(=O)CC[C@H](NC(=O)CCCCCCCCCCCCCCCCCCC(=O)O)C(=O)O)C(=O)O)NC(=O)[C@H](C)NC(=O)[C@H](C)NC(=O)[C@H](CCCNC(=N)N)NC(=O)[C@H](CO)NC(=O)[C@H](CC(=O)O)NC(=O)[C@H](CC(C)C)NC(=O)[C@](C)(Cc1ccccc1)NC(=O)[C@H](CCCCN)NC(=O)[C@H](CO)NC(=O)[C@@H](NC(=O)[C@H](CC(=O)O)NC(=O)[C@H](CO)NC(=O)[C@@H](NC(=O)[C@](C)(Cc1ccccc1)NC(=O)[C@H](CO)NC(=O)CNC(=O)[C@H](Cc1c[nH]cn1)NC(=O)C(C)(C)NC(=O)[C@@H](N)Cc1c[nH]cn1)[C@@H](C)O)C(C)C)C(C)C)C(=O)N[C@@H](C)C(=O)N[C@@H](CC(N)=O)C(=O)N[C@H](C(=O)NCC(=O)NCC(N)=O)[C@@H](C)O` [Peptide 232] (H-H[Aib]HGS[αMeF]TSDVSK[αMeF]LDSRAAK([AEEA-AEEA-γGlu-γGlu-C20 diacid])D[αMeF]VQ[Aib]IANTGG-NH2; N-terminus assumed), the concentration for a half-maximal effect (EC50) in assay [1] (setting [3]) came out at 1020 pM; in assay [2] (setting [3]) it was 110 pM. Besides, in assay [2] (Table 7), the “% Relative Potency Ratio” value is 18.4.
Turning to `CC[C@H](C)[C@H](NC(=O)C(C)(C)NC(=O)[C@H](CCC(N)=O)NC(=O)[C@@H](NC(=O)[C@](C)(Cc1ccccc1)NC(=O)[C@H](CC(=O)O)NC(=O)[C@H](CCCNC(=N)N)NC(=O)[C@H](C)NC(=O)[C@H](C)NC(=O)[C@H](CCCCNC(=O)COCCOCCNC(=O)COCCOCCNC(=O)CC[C@H](NC(=O)CC[C@H](NC(=O)CCCCCCCCCCCCCCCCC(=O)O)C(=O)O)C(=O)O)NC(=O)[C@H](CO)NC(=O)[C@H](CC(=O)O)NC(=O)[C@H](CC(C)C)NC(=O)[C@](C)(Cc1ccccc1)NC(=O)[C@H](CCCCN)NC(=O)[C@H](CO)NC(=O)[C@@H](NC(=O)[C@H](CC(=O)O)NC(=O)[C@H](CO)NC(=O)[C@@H](NC(=O)[C@](C)(Cc1ccccc1)NC(=O)[C@H](CO)NC(=O)CNC(=O)[C@H](Cc1c[nH]cn1)NC(=O)C(C)(C)NC(=O)[C@@H](N)Cc1c[nH]cn1)[C@@H](C)O)C(C)C)C(C)C)C(=O)N[C@@H](C)C(=O)N[C@@H](CC(N)=O)C(=O)N[C@H](C(N)=O)[C@@H](C)O` [Peptide 19] (H-H[Aib]HGS[αMeF]TSDVSK[αMeF]LDSK([AEEA-AEEA-γGlu-γGlu-C18 diacid])AARD[αMeF]VQ[Aib]IANT-NH2; N-terminus assumed), the concentration giving a half-maximal response (EC50) in assay [1] (setting [4]) came out at 133 pM; in assay [2] (setting [4]), 38.3 pM. Besides, the “% Relative Potency Ratio” value in assay [2] (Table 6) was determined as 6.9.
As to `CC[C@H](C)[C@H](NC(=O)[C@H](Cc1c[nH]c2ccccc12)NC(=O)[C@H](CCC(N)=O)NC(=O)[C@@H](NC(=O)[C@H](Cc1ccccc1)NC(=O)[C@H](CC(=O)O)NC(=O)[C@H](CCCCNC(=O)CC[C@H](NC(=O)CCCCCCCCCCCCCCCCC(=O)O)C(=O)O)NC(=O)[C@H](C)NC(=O)[C@H](C)NC(=O)[C@H](CCCNC(=N)N)NC(=O)[C@H](CO)NC(=O)[C@H](CC(=O)O)NC(=O)[C@H](CC(C)C)NC(=O)[C@](C)(Cc1ccccc1)NC(=O)[C@H](CCCCN)NC(=O)[C@H](CO)NC(=O)[C@@H](NC(=O)[C@H](CC(=O)O)NC(=O)[C@H](CO)NC(=O)[C@@H](NC(=O)[C@H](Cc1ccccc1)NC(=O)[C@@H](NC(=O)CNC(=O)[C@H](CCC(N)=O)NC(=O)C(C)(C)NC(=O)[C@@H](N)Cc1c[nH]cn1)[C@@H](C)O)[C@@H](C)O)C(C)C)C(C)C)C(=O)N[C@@H](C)C(=O)N[C@@H](CC(N)=O)C(=O)N[C@H](C(N)=O)[C@@H](C)O` [Peptide 208], the results for the EC50 in assay [1] (setting [3]) and in assay [2] (setting [3]) were 658 pM and 64.4 pM, respectively. In assay [2] (Table 7), the “% Relative Potency Ratio” value was 20.2.
In the case of `CC[C@H](C)[C@H](NC(=O)C(C)(C)NC(=O)[C@H](CCC(N)=O)NC(=O)[C@@H](NC(=O)[C@](C)(Cc1ccccc1)NC(=O)[C@H](CC(=O)O)NC(=O)[C@H](CCCCNC(=O)COCCOCCNC(=O)COCCOCCNC(=O)CC[C@H](NC(=O)CCCCCCCCCCCCCCCCCCC(=O)O)C(=O)O)NC(=O)[C@H](C)NC(=O)[C@H](C)NC(=O)[C@H](CCCNC(=N)N)NC(=O)[C@H](CO)NC(=O)[C@H](CC(=O)O)NC(=O)[C@H](CC(C)C)NC(=O)[C@](C)(Cc1ccccc1)NC(=O)[C@H](CCCCN)NC(=O)[C@H](CO)NC(=O)[C@@H](NC(=O)[C@H](CC(=O)O)NC(=O)[C@H](CO)NC(=O)[C@@H](NC(=O)[C@](C)(Cc1ccccc1)NC(=O)[C@H](CO)NC(=O)CNC(=O)[C@H](Cc1c[nH]cn1)NC(=O)C(C)(C)NC(=O)[C@@H](N)Cc1c[nH]cn1)[C@@H](C)O)C(C)C)C(C)C)C(=O)N[C@@H](C)C(=O)N[C@@H](CC(N)=O)C(=O)N[C@H](C(N)=O)[C@@H](C)O` [Peptide 280] (H-H[Aib]HGS[αMeF]TSDVSK[αMeF]LDSRAAK([AEEA-AEEA-γGlu-C20 diacid])D[αMeF]VQ[Aib]IANT-NH2), the concentration giving a half-maximal response (EC50) in assay [1] (setting [3]) amounted to 155 pM; in assay [2] (setting [3]) it was 78.3 pM. Moreover, the “% Relative Potency Ratio” value in assay [2] (Table 7) is 3.9.
Consider `CC(C)C[C@H](NC(=O)[C@H](Cc1c[nH]c2ccccc12)NC(=O)[C@H](CCCNC(=N)N)NC(=O)[C@@H](NC(=O)[C@H](Cc1ccccc1)NC(=O)[C@H](CC(=O)O)NC(=O)[C@H](CCC(N)=O)NC(=O)[C@H](C)NC(=O)[C@H](CCCNC(=N)N)NC(=O)[C@H](CCCCNC(=O)COCCOCCNC(=O)COCCOCCNC(=O)CC[C@H](NC(=O)CCCCCCCCCCCCCCCCC(=O)O)C(=O)O)NC(=O)[C@H](CCCNC(=N)N)NC(=O)[C@H](CC(=O)O)NC(=O)[C@H](CC(C)C)NC(=O)[C@](C)(Cc1ccccc1)NC(=O)[C@H](CCCCN)NC(=O)[C@H](CO)NC(=O)[C@@H](NC(=O)[C@H](CC(=O)O)NC(=O)[C@H](CO)NC(=O)[C@@H](NC(=O)[C@H](Cc1ccccc1)NC(=O)[C@@H](NC(=O)CNC(=O)[C@H](CCC(N)=O)NC(=O)C(C)(C)NC(=O)[C@@H](N)Cc1c[nH]cn1)[C@@H](C)O)[C@@H](C)O)C(C)C)C(C)C)C(=O)N[C@@H](CC(C)C)C(=O)NC(C)(C)C(=O)N[C@H](C(=O)N[C@@H](CCC(=O)O)C(N)=O)[C@@H](C)O` [Peptide 422] (H-H[Aib]QGTFTSDVSK[αMeF]LDRK([AEEA-AEEA-γGlu-C18 diacid])RAQDFVRWLL[Aib]TE-NH2; N-terminus assumed), for which the concentration for a half-maximal effect (EC50) was 123 pM in assay [1] (setting [4]) and 27.6 pM in assay [2] (setting [4]). The “% Relative Potency Ratio” value in assay [2] (Table 6) was determined as 8.9.
Take `CC[C@H](C)[C@H](NC(=O)C(C)(C)NC(=O)[C@H](CCC(N)=O)NC(=O)[C@@H](NC(=O)[C@](C)(Cc1ccccc1)NC(=O)[C@H](CC(=O)O)NC(=O)[C@H](CCCCNC(=O)COCCOCCNC(=O)COCCOCCNC(=O)CC[C@H](NC(=O)CCCCCCCCCCCCCCCCC(=O)O)C(=O)O)NC(=O)[C@H](C)NC(=O)[C@H](C)NC(=O)[C@H](CCCNC(=N)N)NC(=O)[C@H](CO)NC(=O)[C@H](CC(=O)O)NC(=O)[C@H](CC(C)C)NC(=O)[C@](C)(Cc1ccccc1)NC(=O)[C@H](CCCCN)NC(=O)[C@H](CO)NC(=O)[C@@H](NC(=O)[C@H](CC(=O)O)NC(=O)[C@H](CO)NC(=O)[C@@H](NC(=O)[C@](C)(Cc1ccccc1)NC(=O)[C@H](CO)NC(=O)CNC(=O)[C@H](CCC(N)=O)NC(=O)C1(NC(=O)[C@@H](N)Cc2c[nH]cn2)CC1)[C@@H](C)O)C(C)C)C(C)C)C(=O)N[C@@H](C)C(=O)N[C@@H](CC(N)=O)C(=O)N[C@H](C(N)=O)[C@@H](C)O` [Peptide 327] (H-H[Ac3c]QGS[αMeF]TSDVSK[αMeF]LDSRAAK([AEEA-AEEA-γGlu-C18 diacid])D[αMeF]VQ[Aib]IANT-NH2): the EC50 in assay [1] (setting [3]) was over 25700 pM; in assay [2] (setting [3]) it was 30.1 pM.
As for `CC(C)C[C@H](NC(=O)[C@H](Cc1c[nH]c2ccccc12)NC(=O)[C@H](C)NC(=O)[C@@H](NC(=O)[C@H](Cc1ccccc1)NC(=O)[C@H](CC(=O)O)NC(=O)[C@H](CCCCNC(=O)COCCOCCNC(=O)COCCOCCNC(=O)CC[C@H](NC(=O)CCCCCCCCCCCCCCCCC(=O)O)C(=O)O)NC(=O)[C@H](C)NC(=O)[C@H](CCCNC(=N)N)NC(=O)[C@H](CCC(=O)O)NC(=O)[C@H](CO)NC(=O)[C@H](CC(=O)O)NC(=O)[C@H](CC(C)C)NC(=O)[C@](C)(Cc1ccccc1)NC(=O)[C@H](CCCCN)NC(=O)[C@H](CO)NC(=O)[C@@H](NC(=O)[C@H](CC(=O)O)NC(=O)[C@H](CO)NC(=O)[C@@H](NC(=O)[C@H](Cc1ccccc1)NC(=O)[C@@H](NC(=O)CNC(=O)[C@H](CCC(N)=O)NC(=O)C(C)(C)NC(=O)[C@@H](N)Cc1c[nH]cn1)[C@@H](C)O)[C@@H](C)O)C(C)C)C(C)C)C(=O)N[C@@H](CCC(=O)O)C(=O)N[C@@H](C)C(=O)NCC(=O)NCC(=O)O` [Peptide 522], the concentration giving a half-maximal response (EC50) is 6360 pM in assay [1] (setting [3]) and 508 pM in assay [2] (setting [3]). For the same compound, the “% Relative Potency Ratio” value in assay [2] (Table 7) is 24.8.
